Measured values reported in patent US20250312497A1, “METHOD OF TREATING PROSTATE CANCER” (Novartis AG, priority 2022, published 2025).
Values joined by “and” are separate entries in the source; they are usually repeats but may differ in a detail not shown here. Equal values may be shown once.

Experiments:
[1] = system: docetaxel progressing metastatic castration-resistant prostate cancer; conditions: randomized, 200 patients; P<0.0001; cited from earlier work
[2] = system: metastatic castration-resistant prostate cancer; conditions: cited from earlier work
[3] = excretory mechanisms, kidneys (Kratochwil et al 2016); cited from earlier work
[4] = system: PSMA-positive metastatic castration-resistant prostate cancer; conditions: cited from earlier work
[5] = system: PSMA-positive mCRPC participants; assay: PSMAfore phase III: patient disposition, treatment discontinuation; type: in vivo, human
Excerpt: Patient disposition (Full analysis set)

mCRPC participants = conditions: cited from earlier work
[6] = system: PSMA-positive metastatic castration-resistant prostate cancer (mCRPC); assay: PSMAfore phase III: radiographic progression-free survival (rPFS) by blinded independent central review per PCWG3; type: in vivo, human
[7] = DCO 21 Jun 2023, full analysis set

O=C([O-])CN1CCN(CC(=O)[O-])CCN(CC(=O)NCC2CCC(C(=O)N[C@@H](Cc3ccc4ccccc4c3)C(=O)NCCCC[C@H](NC(=O)N[C@@H](CCC(=O)O)C(=O)O)C(=O)O)CC2)CCN(CC(=O)[O-])CC1.[177Lu+3] (stereo partly drawn) [[177Lu]Lu-PSMA-617, lutetium (177Lu) vipivotide tetraxetan]
proportion of patients with PSA decline >=50% [1]: 66% | objective response rate in measurable disease by RECIST (CR and PR) ([2]; 27 participants with measurable disease): 56% | median overall survival ([2]; 95% CI 10.5-18.0): 13.3 months | participants with reduction of PSA of 80% or more ([2]; up to 4 cycles of 4-8 GBq every 6 weeks): 44% | participants with PSA response (reduction in PSA of at least 50%) ([2]; up to 4 cycles of 4-8 GBq every 6 weeks, post-taxane, post abiraterone/enzalutamide): 64% | injected dose cleared within 48 hours [3]: approximately 50% | TEAE anemia ([4]; VISION): 31.8% | TEAE arthralgia ([4]; VISION): 22.3% | TEAE back pain ([4]; VISION): 23.4% | TEAE constipation ([4]; VISION): 20.2% | TEAE decreased appetite ([4]; VISION): 21.2% | TEAE diarrhea ([4]; VISION): 18.9% | TEAE dry mouth ([4]; VISION): 38.8% | TEAE fatigue ([4]; VISION): 43.1% | TEAE leukopenia ([4]; VISION): 12.5% | TEAE lymphopenia ([4]; VISION): 14.2% | TEAE nausea ([4]; VISION): 35.3% | TEAE thrombocytopenia ([4]; VISION): 17.2% | TEAE vomiting ([4]; VISION): 18.9% | patients reporting treatment-emergent adverse events (TEAEs) ([4]; as of 27 Jan 2021, 519 patients): 98.1% | incidence of adverse events of grade 3 or above ([4]; as of 27 Jan 2021): 52.7% | treatment discontinuation due to adverse event ([5]; DCO 2 Oct 2022): 3.9% | Reason for discontinuation: Adverse event ([5]; DCO 2 Oct 2022, full analysis set): 9 (3.9) n (%) | treatment discontinuation due to adverse event ([5]; DCO 21 Jun 2023): 5.6% | Grade 3/4 nephrotoxicity (mCRPC participants; literature): no reports of Grade 3/4 nephrotoxicity | rate of xerostomia in treated participants (mCRPC participants; prospective study, low grade): approximately 87% | rPFS events: Death without radiographic progression [6, 7]: 10 (4.3) n(%) | rPFS events: Radiographic progression [6, 7]: 105 (44.9) n(%) | rPFS: Number of events [6, 7]: 115 (49.1%) n(%) and 115 (49.1) n(%) | risk reduction (rPFS) compared to ARDT arm ([6]; updated exploratory analysis DCO 21 Jun 2023): 57%
